Assays:
αvβ1 integrin = assay: Cell Adhesion Assay (integrin-specific adhesion, CHO cells transfected with human αv adhering to fibronectin); format: cell-based; conditions: for IC50: Cell Adhesion Assay
Protocol: The effects of c8 and c16 on cell adhesion mediated by α5β1, α8β1, αvβ1, αvβ3, αvβ5, αvβ6, and αvβ8 were measured using pairs of cell lines and ligands selected to isolate the effect of each individual integrin. For α5β1 we utilized the colon carcinoma cell line, SW480, plated on 0.3 μg/ml fibronectin, for α8β1, we utilized SW480 cells transfected with human α8 adhering to 1 μg/ml recombinant TGFβ1 LAP [5], for αvβ1 we used Chinese Hamster Ovary Cells (CHO cells) transfected with human αv adhering to 0.3 μg/ml fibronectin [6], for αvβ3 we used SW480 cells transfected with human β3, for αvβ5 we used wild type SW480 cells adhering to 0.1 μg/ml vitronectin. […] Cells were allowed to attach for 30-60 min at 37° C. After incubation, non-adherent cells were removed by discarding the media and spinning the plate top-side down at 500 rpm for 5 minutes. Cells were then fixed and stained with 40 ul of 0.5% Crystal violet, 1% Formaldehyde, 20% Methanol for 30 minutes and lysed with 2% Trition-X. Absorbance was measured at 595 nm in a Microplate reader. For all assays, concentration-response curves were constructed by non-linear regression analysis and IC50 values were calculated using GraphPad Prism software.
αvβ1 integrin inhibition is effective in cell adhesion assay/mouse liver fibrosis model: Inhibitors were tested in cell adhesion assay to test their potency/selectivity. A panel of cell lines and integrin ligands were developed to allow rapid examination of potency and specificity of inhibitors against all 8 integrins that recognize RGD sequences in ligands. A subset of these was used to generate the very encouraging data about 8 shown above. These cell lines were used to calculate IC50 concentrations for each inhibitor synthesized to rapidly generate structure activity information to drive subsequent modification and synthesis. Inhibitors were evaluated for showing better potency/selectivity in CCl4-induced liver fibrosis. A general inhibitor of αv integrins can reverse fibrosis in this model when administered as a continuous subcutaneous infusion (from Alzet pumps) beginning 3 weeks after CCl4 initiation. However, global inhibition of all αv integrins is likely to cause unacceptable side effects. […] As above, pumps will be inserted after 3 weeks of CCl4 treatment. Once we find small molecules that are effective, each will be further tested in the UUO model of renal fibrosis and the bleomycin model of pulmonary fibrosis. Again we will examine therapeutic rather than prophylactic efficacy by beginning treatment in each model after the onset of fibrosis.

[1] = system: TGFβ activation by cells expressing αvβ1; assay: TGFβ activation assay (co-culture with PAI1-luciferase TGFβ reporter cells); format: cell-based
Protocol: Test cells were plated at 50K cells/well in 96-well plates together with mink lung epithelial cells expressing firefly luciferase downstream of the TGFβ sensitive portion of the plasminogen activator inhibitor 1 promoter (15K cells/well). Cells were co-cultured for 16 hours and TGFβ activity was calculated by measurement of luminescencein the presence and absence of TGFβ-blocking antibody, 1D11.

SMILES | IC50 (αvβ1 integrin) | concentration that inhibits cell adhesion by αvβ1 integrin (αvβ1 integrin; preliminary studies, highly selective manner) | TGFβ activation by cultured liver myofibroblasts [1]
CNCCCCCC(=O)N[C@H](CCCNC(=N)N)C(=O)Nc1ccc(C[C@H](NC(=O)[C@@H]2CCCN2S(=O)(=O)c2ccccc2)C(=O)O)cc1 (stereo in doubt) [Compound 199] | < 0.01 µM |  | 
NCC(=O)Nc1ccc(C[C@H](NC(=O)[C@@H]2CCCN2S(=O)(=O)c2ccccc2)C(=O)O)cc1 [Compound 1, (S)-3-(4-(2-aminoacetamido)phenyl)-2-((S)-1-(phenylsulfonyl)pyrrolidine-2-carboxamido)propanoic acid] | 1 to 10 µM |  | 
NCCC(=O)Nc1ccc(C[C@H](NC(=O)[C@@H]2CCCN2S(=O)(=O)c2ccccc2)C(=O)O)cc1 [Compound 2, (S)-3-(4-(3-aminopropanamido)phenyl)-2-((S)-1-(phenylsulfonyl)pyrrolidine-2-carboxamido)propanoic acid] | 0.01 to 1 µM |  | 
NCCCC(=O)Nc1ccc(C[C@H](NC(=O)[C@@H]2CCCN2S(=O)(=O)c2ccccc2)C(=O)O)cc1 [Compound 3, (S)-3-(4-(4-aminobutanamido)phenyl)-2-((S)-1-(phenylsulfonyl)pyrrolidine-2-carboxamido)propanoic acid] | 0.01 to 1 µM |  | 
N=C(N)NCC(=O)Nc1ccc(C[C@H](NC(=O)[C@@H]2CCCN2S(=O)(=O)c2ccccc2)C(=O)O)cc1 [Compound 4, (S)-3-(4-(2-guanidinoacetamido)phenyl)-2-((S)-1-(phenylsulfonyl)pyrrolidine-2-carboxamido)propanoic acid] | 0.01 to 1 µM |  | 
N=C(N)NCCC(=O)Nc1ccc(C[C@H](NC(=O)[C@@H]2CCCN2S(=O)(=O)c2ccccc2)C(=O)O)cc1 [Compound 5, (S)-3-(4-(3-guanidinopropanamido)phenyl)-2-((S)-1-(phenylsulfonyl)pyrrolidine-2-carboxamido)propanoic acid] | < 0.01 µM |  | 
NCCCC(=O)Nc1ccc(C[C@H](NC(=O)[C@@H]2CCCN2S(=O)(=O)c2ccccc2)C(=O)O)cc1 [Compound 6, (S)-3-(4-(4-aminobutanamido)phenyl)-2-((S)-1-(phenylsulfonyl)pyrrolidine-2-carboxamido)propanoic acid] | < 0.01 µM |  | 
NCCCCC(=O)Nc1ccc(C[C@H](NC(=O)[C@@H]2CCCN2S(=O)(=O)c2ccccc2)C(=O)O)cc1 [Compound 7, (S)-3-(4-(5-aminopentanamido)phenyl)-2-((S)-1-(phenylsulfonyl)pyrrolidine-2-carboxamido)propanoic acid] | 1 to 10 µM |  | 
N=C(N)NCCCCC(=O)Nc1ccc(C[C@H](NC(=O)[C@@H]2CCCN2S(=O)(=O)c2ccccc2)C(=O)O)cc1 [Compound 8, (S)-3-(4-(5-guanidinopentanamido)phenyl)-2-((S)-1-(phenylsulfonyl)pyrrolidine-2-carboxamido)propanoic acid] | < 0.01 µM | < 100 pM | inhibits TGFβ activation
NCCCCCC(=O)Nc1ccc(C[C@H](NC(=O)[C@@H]2CCCN2S(=O)(=O)c2ccccc2)C(=O)O)cc1 [Compound 9, (S)-3-(4-(6-aminohexanamido)phenyl)-2-((S)-1-(phenylsulfonyl)pyrrolidine-2-carboxamido)propanoic acid] | 1 to 10 µM |  | 
N=C(N)NCCCCCC(=O)Nc1ccc(C[C@H](NC(=O)[C@@H]2CCCN2S(=O)(=O)c2ccccc2)C(=O)O)cc1 [Compound 10, (S)-3-(4-(6-guanidinohexanamido)phenyl)-2-((S)-1-(phenylsulfonyl)pyrrolidine-2-carboxamido)propanoic acid] | 0.01 to 1 µM |  | 
O=C(CCCCNC1=NCCN1)Nc1ccc(C[C@H](NC(=O)[C@@H]2CCCN2S(=O)(=O)c2ccccc2)C(=O)O)cc1 [Compound 11, (S)-3-(4-(5-((4,5-dihydro-1H-imidazol-2-yl)amino)pentanamido)phenyl)-2-((S)-1-(phenylsulfonyl)pyrrolidine-2-carboxamido)propanoic acid] | 0.01 to 1 µM |  | 
O=C(CCCCNC1=NCCCN1)Nc1ccc(C[C@H](NC(=O)[C@@H]2CCCN2S(=O)(=O)c2ccccc2)C(=O)O)cc1 [Compound 60] | 0.01 to 1 µM |  | 
O=C(CCCc1ccc2c(n1)NCCC2)Nc1ccc(C[C@H](NC(=O)[C@@H]2CCCN2S(=O)(=O)c2ccccc2)C(=O)O)cc1 [Compound 63] | 0.01 to 1 µM |  | 
O=C(CCCNC1=NCCN1)Nc1ccc(C[C@H](NC(=O)[C@@H]2CCCN2S(=O)(=O)c2ccccc2)C(=O)O)cc1 [Compound 87, (S)-3-(4-(4-((4,5-dihydro-1H-imidazol-2-yl)amino)butanamido)phenyl)-2-((S)-1-(phenylsulfonyl)pyrrolidine-2-carboxamido)propanoic acid] | < 0.01 µM |  | 
N=C(N)NC(=O)CCC(=O)Nc1ccc(C[C@H](NC(=O)[C@@H]2CCCN2S(=O)(=O)c2ccccc2)C(=O)O)cc1 [Compound 93] | 0.01 to 1 µM |  | 
CNCCCCCC(=O)N[C@H](CCCNC(=N)N)C(=O)Nc1ccc(C[C@H](NC(=O)C2CCCN2S(=O)(=O)c2ccccc2)C(=O)O)cc1 (stereo partly drawn) [Compound 198] | 0.01 to 1 µM |  | 
N=C(N)Nc1ccc(C(=O)Nc2ccc(C[C@H](NC(=O)[C@@H]3CCCN3S(=O)(=O)c3ccccc3)C(=O)O)cc2)cc1 [Compound 200, (S)-3-(4-(4-guanidinobenzamido)phenyl)-2-((S)-1-(phenylsulfonyl)pyrrolidine-2-carboxamido)propanoic acid] | 0.01 to 1 µM |  | 
N=C(N)Nc1cccc(C(=O)Nc2ccc(C[C@H](NC(=O)[C@@H]3CCCN3S(=O)(=O)c3ccccc3)C(=O)O)cc2)c1 [Compound 201, (S)-3-(4-(3-guanidinobenzamido)phenyl)-2-((S)-1-(phenylsulfonyl)pyrrolidine-2-carboxamido)propanoic acid] | < 0.01 µM |  | 
N=C(N)NCCOCC(=O)Nc1ccc(C[C@H](NC(=O)[C@@H]2CCCN2S(=O)(=O)c2ccccc2)C(=O)O)cc1 [Compound 204, (S)-3-(4-(2-(2-guanidinoethoxy)acetamido)phenyl)-2-((S)-1-(phenylsulfonyl)pyrrolidine-2-carboxamido)propanoic acid] | 0.01 to 1 µM |  | 
N=C(N)Nc1cccc(CC(=O)Nc2ccc(C[C@H](NC(=O)[C@@H]3CCCN3S(=O)(=O)c3ccccc3)C(=O)O)cc2)c1 [Compound 205, (S)-3-(4-(2-(3-guanidinophenyl)acetamido)phenyl)-2-((S)-1-(phenylsulfonyl)pyrrolidine-2-carboxamido)propanoic acid] | 0.01 to 1 µM |  | 
Cc1ccc(NCCCC(=O)Nc2ccc(C[C@H](NC(=O)[C@@H]3CCCN3S(=O)(=O)c3ccccc3)C(=O)O)cc2)nc1 [Compound 206, (S)-3-(4-(4-((5-methylpyridin-2-yl)amino)butanamido)phenyl)-2-((S)-1-(phenylsulfonyl)pyrrolidine-2-carboxamido)propanoic acid] | 0.01 to 1 µM |  | 
Cc1cccc(NCCCC(=O)Nc2ccc(C[C@H](NC(=O)[C@@H]3CCCN3S(=O)(=O)c3ccccc3)C(=O)O)cc2)n1 [Compound 207, (S)-3-(4-(4-((6-methylpyridin-2-yl)amino)butanamido)phenyl)-2-((S)-1-(phenylsulfonyl)pyrrolidine-2-carboxamido)propanoic acid] | 0.01 to 1 µM |  | 
Cc1cnc(NCCCC(=O)Nc2ccc(C[C@H](NC(=O)[C@@H]3CCCN3S(=O)(=O)c3ccccc3)C(=O)O)cc2)c(C)c1 [Compound 210, (S)-3-(4-(4-((3,5-dimethylpyridin-2-yl)amino)butanamido)phenyl)-2-((S)-1-(phenylsulfonyl)pyrrolidine-2-carboxamido)propanoic acid] | 0.01 to 1 µM |  | 
N=C(N)NCCCC(=O)Nc1ccc(C[C@H](NC(=O)[C@@H]2CCCCN2S(=O)(=O)c2ccccc2)C(=O)O)cc1 [Compound 212] | 0.01 to 1 µM |  | 
O=C(CCCNc1ccccn1)Nc1ccc(C[C@H](NC(=O)[C@@H]2CCCCN2S(=O)(=O)c2ccccc2)C(=O)O)cc1 [Compound 213] | < 0.01 µM |  | 
Cc1cc(C)cc(S(=O)(=O)N2CCC[C@H]2C(=O)N[C@@H](Cc2ccc(NC(=O)CCCNC(=N)N)cc2)C(=O)O)c1 [Compound 214] | 0.01 to 1 µM |  | 
CN(C)c1cccc2c(S(=O)(=O)N3CCCC3C(=O)N[C@@H](Cc3ccc(NC(=O)CCCCNC(=N)N)cc3)C(=O)O)cccc12 (stereo partly drawn) [Compound 215] | < 0.01 µM |  | 

From patent publication US10131658B2, “Anti-alphavbeta1 integrin compounds and methods” (The Regents of the University of California, priority 2013, dated 2018)
